Measurements from patent US8729020B2, “Methods for the treatment of aortic fibrosis with VIP fragments” (Vectus Biosystems Pty Ltd, priority 2009, dated 2014).

Test system: Male SHR rats on 2.2% salt diet
Assay: Effect of VIP/VIP fragment infusion on aortic fibrosis in rat model of fibrosis
Type: in vivo
Conditions: 4 weeks intravenous infusion at 5 pmol/kg/min by osmotic minipump, vs vehicle control, fibrosis quantified as percent surface area
Text: Two animal models of aortic fibrosis were used (animals obtained from Australian Animal Resources, Perth, Western Australia, Australia)
i) Male SHR rats on 2.2% salt diet
In each model the rats were randomised to VIP (1-28), VIP (4-12), VIP (4-16), VIP (4-10), VIP (4-20), VIP (4-24), VIP (10-28), VIP (16-20), VIP (16-24), VIP (16-28), VIP (6-10), VIP (6-12), VIP (6-16), VIP (6-20), VIP (6-24), and VIP (6-28). All peptides were obtained from or synthesised by Auspep, Australia. VIP fragments were dissolved in Hartman's solution for subsequent infusion studies. Commencing at 12 weeks of age, the rats were acclimatized to tail cuff blood pressure measurements and handling for 2 weeks. They then underwent operative insertion of an osmotic minipump (Alzet) which was designed to deliver vehicle alone (Hartman's solution, (Baxter Health Care Corporation)-(Controls)) or VIP, VIP fragment at a dose of 5 pmol/kg/min intravenously.
The infusion was continued for 4 weeks, during which the rats were weighed and their blood pressures measured twice weekly. […]
For quantitation of aortic fibrosis, twenty fields from each aorta were digitized and the amount of fibrosis in each determined as percent surface area using Image-Pro Plus V5.0 software. The mean value for each rat and subsequently for each infusion group was then determined.

## His-Ser-Asp-Ala-Val-Phe-Thr-Asp-Asn-Tyr-Thr-Arg-Leu-Arg-Lys-Gln-Met-Ala-Val-Lys-Lys-Tyr-Leu-Asn-Ser-Ile-Leu-Asn (HSDAVFTDNYTRLRKQMAVKKYLNSILN; listed as Homo sapiens) [VIP]
  aortic fibrosis (fibrosis within the aortic wall): reductions in aortic fibrosis
